In US12398151B2, “Sumo inhibitor compounds and uses thereof” (SUVALENT THERAPEUTICS, INC., priority 2019, dated 2025):
Where two headings read alike, the source gives them in different places.

Key:
[1] = biological target: T1, SUMO E1 (Homo sapiens, UniProt Q9UBT2); test: SUMO E1 inhibition: UBC9-SUMO1 conjugation by SDS gel electrophoresis; type: biochemical; conditions: read-out: SUMO E1 percent inhibition of adduct formation; for inhibition at 9 µM: 9 uM compound; for inhibition at 25 µM: 25 uM compound; for inhibition at 3 µM: 3 uM compound; for inhibition at 27 µM: 27 uM compound; for inhibition at 1 µM: 1 uM compound
T1 sequence (Q9UBT2 1-640): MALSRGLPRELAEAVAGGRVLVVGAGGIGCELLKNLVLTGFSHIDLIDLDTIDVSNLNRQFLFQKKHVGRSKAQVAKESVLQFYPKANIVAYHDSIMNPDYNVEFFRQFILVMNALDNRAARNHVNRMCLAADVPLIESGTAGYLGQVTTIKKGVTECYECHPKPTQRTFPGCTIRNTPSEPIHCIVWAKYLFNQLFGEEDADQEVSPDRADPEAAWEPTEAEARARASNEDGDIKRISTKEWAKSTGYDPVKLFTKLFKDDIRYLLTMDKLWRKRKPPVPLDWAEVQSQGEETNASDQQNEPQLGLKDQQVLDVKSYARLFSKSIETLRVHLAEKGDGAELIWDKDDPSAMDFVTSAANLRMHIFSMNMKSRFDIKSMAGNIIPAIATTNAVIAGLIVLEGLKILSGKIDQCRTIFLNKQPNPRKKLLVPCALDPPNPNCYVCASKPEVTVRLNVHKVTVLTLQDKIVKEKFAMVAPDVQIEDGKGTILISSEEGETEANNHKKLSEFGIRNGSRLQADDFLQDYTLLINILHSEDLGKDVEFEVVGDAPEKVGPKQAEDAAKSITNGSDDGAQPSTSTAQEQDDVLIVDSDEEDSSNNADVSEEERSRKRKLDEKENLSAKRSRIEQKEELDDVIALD
T1 sequence (Q9UBE0 1-346 partner): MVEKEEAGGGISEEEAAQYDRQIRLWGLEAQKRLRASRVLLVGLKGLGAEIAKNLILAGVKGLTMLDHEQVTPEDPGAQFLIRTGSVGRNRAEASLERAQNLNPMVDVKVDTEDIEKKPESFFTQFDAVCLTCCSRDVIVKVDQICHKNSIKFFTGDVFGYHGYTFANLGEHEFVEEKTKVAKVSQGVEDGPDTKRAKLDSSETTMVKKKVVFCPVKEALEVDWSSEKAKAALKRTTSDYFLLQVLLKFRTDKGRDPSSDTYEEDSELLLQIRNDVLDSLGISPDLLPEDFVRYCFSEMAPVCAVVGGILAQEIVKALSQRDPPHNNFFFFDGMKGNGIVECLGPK
Procedure: (§1) Compounds are evaluated for their inhibitory effect on activating enzymes (E1) of ubiquitin, SUMO, Nedd8, Urm1, ISG15 or Atg7 using previously reported methods and protocols. One example is in: Allosteric inhibition of ubiquitin-like modifications by a class of inhibitor of SUMO-activating enzyme. Cell Chemical Biology, 26, 1-11, 2019. PMID: 28051857.
(§2) Compounds are tested in the following manner. The compound and SUMO E1 are incubated for a predetermined amount of time. UBC9, SUMO1, and ATP are added to the E1-compound mixture and incubated at 37° C. The reaction is quenched with Laemmli Buffer. The UBC9-SUMO1 conjugation is analyzed via SDS gel electrophoresis. The percent inhibition is measured by the intensity of the UBC9-SUMO1 band compared to the no compound control. Activities are listed as compound concentration (uM), preincubation time of E1 with compound (min), and percent inhibition of adduct formation (%). […]

[2] = biological target: T2, Atg7 (Homo sapiens, UniProt O95352); test: Atg7 activating enzyme (E1) inhibition; type: biochemical; conditions: 25 uM compound, 60 min preincubation; read-out: Atg7 percent inhibition of adduct formation
T2 sequence (O95352 1-703): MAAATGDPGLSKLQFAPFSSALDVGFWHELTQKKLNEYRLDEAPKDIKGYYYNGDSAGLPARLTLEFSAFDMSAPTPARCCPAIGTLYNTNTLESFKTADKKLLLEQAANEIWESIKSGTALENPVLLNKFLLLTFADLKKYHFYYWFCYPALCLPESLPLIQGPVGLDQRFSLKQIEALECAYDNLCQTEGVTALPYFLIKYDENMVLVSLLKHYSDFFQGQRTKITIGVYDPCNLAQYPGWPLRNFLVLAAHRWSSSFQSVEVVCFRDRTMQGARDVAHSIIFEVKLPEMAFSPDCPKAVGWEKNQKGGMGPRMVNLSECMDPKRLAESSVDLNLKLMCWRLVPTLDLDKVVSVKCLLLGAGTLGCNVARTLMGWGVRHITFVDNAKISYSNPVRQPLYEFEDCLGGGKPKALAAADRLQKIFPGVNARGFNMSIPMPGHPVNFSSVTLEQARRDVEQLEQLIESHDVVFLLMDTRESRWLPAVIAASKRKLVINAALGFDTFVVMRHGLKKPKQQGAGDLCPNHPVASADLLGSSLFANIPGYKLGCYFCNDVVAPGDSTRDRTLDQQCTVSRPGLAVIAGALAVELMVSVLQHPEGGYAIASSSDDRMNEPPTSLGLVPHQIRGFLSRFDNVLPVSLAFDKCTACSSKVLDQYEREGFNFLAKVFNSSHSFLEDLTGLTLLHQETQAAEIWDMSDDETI
Procedure: as §1, §2

Row | SMILES | inhibition at 9 µM ([1]; 30 min preincubation) [%] | inhibition at 25 µM [2] [%] | inhibition at 27 µM ([1]; 30 min preincubation) [%] | further results
1 | C=CC(=O)N1Cc2cc(Cl)ccc2[C@@H](c2cccnc2)C1 [Compound 87] | < 1 | < 1 |  | 
2 | C=CC(=O)N1Cc2cc(Br)cnc2[C@@H](c2ccccc2)C1 [Compound 88] | < 1 | < 1 |  | 
3 | C=CC(=O)N1Cc2sc(C)cc2[C@@H](c2ccccc2C)C1 [Compound 89] | 95 | < 1 |  | 
4 | Cc1ccccc1[C@H]1CN(C(=O)/C=C/c2ccccc2)Cc2sc(Br)cc21 [Compound 90] |  | < 1 |  | inhibition at 25 µM ([1]; 60 min preincubation): < 1%
5 | Cc1cc2c(s1)CN(C(=O)/C=C/c1ccccc1)C[C@@H]2c1ccccc1 [Compound 91] | < 1 | < 1 |  | 
6 | C=CC(=O)N1Cc2cc(Cl)ccc2[C@@H](c2ccncc2)C1 [Compound 92] |  | < 1 |  | inhibition at 20 µM ([1]; 20 uM compound, 60 min preincubation): 10%
7 | C#CC(=O)N1Cc2sc(Cl)cc2[C@@H](c2ccccc2C)C1 [Compound 93] | 95 | 100 |  | 
8 | C=CC(=O)N1Cc2cc(Cl)ccc2[C@@H](c2ccc[nH]c2=O)C1 [Compound 94] | < 1 | < 1 |  | 
9 | Cc1cc2c(s1)CN(C(=O)CC#N)C[C@@H]2c1ccccc1 [Compound 95] | < 1 | < 1 |  | 
10 | CCS(=O)(=O)N1Cc2sc(Cl)cc2[C@@H](c2ccccc2C)C1 [Compound 96] | < 1 | 90 |  | 
11 | C/C=C/C(=O)N1Cc2sc(Cl)cc2[C@@H](c2ccccc2C)C1 [Compound 97] | < 1 | < 1 |  | 
12 | C=CC(=O)N1Cc2cc(Cl)c(Cl)cc2[C@@H](c2ncccc2C)C1 [Compound 98] | < 1 | < 1 |  | 
13 | Cc1ccccc1[C@H]1CN(C(=O)/C=C/CN(C)C)Cc2sc(Cl)cc21 [Compound 99] |  | < 1 |  | inhibition at 9 µM ([1]; 20 min preincubation): < 1%
14 | C=CC(=O)N1Cc2cc(Cl)c(Cl)cc2[C@@H](c2ccccc2)C1 [Compound 100] |  | < 1 |  | inhibition at 3 µM ([1]; 15 min preincubation): 30%
15 | C=CC(=O)N1Cc2ccc(Cl)c(Cl)c2[C@@H](c2ccccc2)C1 [Compound 101] |  | < 1 |  | inhibition at 3 µM ([1]; 15 min preincubation): 30%
16 | C=CC(=O)N1Cc2cc(Cl)ccc2[C@@H](C2CCCCC2)C1 [Compound 102] | 40 | < 1 |  | 
17 | C=CC(=O)N1Cc2sc(-c3ccccc3)cc2[C@@H](c2ccccc2)C1 [Compound 103] |  | < 1 | < 1 | 
18 | C=C(F)C(=O)N1Cc2sc(Cl)cc2[C@@H](c2ccccc2C)C1 [Compound 104] |  | < 1 |  | inhibition at 25 µM ([1]; 30 min preincubation): < 1%
19 | Cc1ccccc1[C@H]1CN(C(=O)[C@@H]2CO2)Cc2sc(Cl)cc21 [Compound 105] |  | < 1 | < 1 | 
20 | C=C(C)C(=O)N1Cc2sc(Cl)cc2[C@@H](c2ccccc2C)C1 [Compound 106] |  | < 1 | < 1 | 
21 | Cc1ccccc1[C@H]1CN(C(=O)CBr)Cc2sc(Cl)cc21 [Compound 107] | 100 | 100 |  | 

Row | SMILES | inhibition at 9 µM ([1]; 30 min preincubation) [%] | inhibition at 25 µM [2] [%] | inhibition at 27 µM ([1]; 30 min preincubation) [%] | further results
22 | Cc1ccccc1[C@H]1CN(C(=O)/C=C/C(F)(F)F)Cc2sc(Cl)cc21 [Compound 108] |  | < 1 |  | inhibition at 1 µM ([1]; 30 min preincubation): 100%
23 | C=CC(=O)N1Cc2sc(Cl)cc2[C@@H](c2ccccc2OC)C1 [Compound 109] |  | 80 | 30 | 
24 | C=CC(=O)N1Cc2sc(CCC)cc2[C@@H](c2ccccc2C)C1 [Compound 110] |  | 80 | 30 | 
25 | C=CC(=O)N1Cc2cc(Br)sc2[C@@H](c2ccccc2C)C1 [Compound 111] |  | < 1 | 80 | 
26 | C=CC(=O)N1Cc2sc(Cl)cc2[C@@H](c2ccccc2C)[C@H]1C [Compound 112] |  | < 1 | 95 | 
27 | C=CC(=O)N1Cc2sc(Cl)cc2[C@@H](c2ccccc2Br)C1 [Compound 113] |  | < 1 |  | inhibition at 1 µM ([1]; 30 min preincubation): 95%
28 | C=CC(=O)N1Cc2sc(Cl)cc2[C@@H](c2ccccc2F)C1 [Compound 114] |  | < 1 |  | inhibition at 1 µM ([1]; 30 min preincubation): 100%
29 | Cc1ccccc1[C@H]1CN(C(=O)CCl)Cc2sc(Cl)cc21 [Compound 115] |  | 100 | 80 | 
30 | C=CC(=O)N1Cc2ccsc2[C@@H](c2ccccc2)C1 [Compound 116] |  | < 1 | < 1 | 
31 | C=CC(=O)N[C@H]1Cc2ccsc2[C@@H](c2ccccc2C)C1 [Compound 117] |  | < 1 | < 1 | 
32 | Cc1ccccc1[C@H]1CN(C(=O)c2cccnc2Cl)Cc2sc(Cl)cc21 [Compound 118] |  | < 1 | < 1 | 
33 | Cc1ccccc1[C@H]1CN(C(=O)/C=C/c2ccccn2)Cc2sc(Cl)cc21 [Compound 119] |  | < 1 | < 1 | 
34 | O=C(/C=C/C(F)(F)F)N1Cc2sc(Cl)cc2[C@@H](c2ccccc2F)C1 [Compound 120] |  | < 1 |  | inhibition at 1 µM ([1]; 30 min preincubation): 100%
35 | Cc1ccccc1[C@H]1CN(C(=O)/C=C/c2ccc(C#N)cc2)Cc2sc(Cl)cc21 [Compound 121] |  | < 1 | < 1 | 
36 | Cc1ccccc1[C@H]1CN(C(=O)/C=C/C(F)F)Cc2sc(Cl)cc21 [Compound 122] |  | < 1 |  | inhibition at 1 µM ([1]; 30 min preincubation): 100%
37 | C=CC(=O)N1Cc2sccc2[C@@H](C2CCCCC2)C1 [Compound 123] | 40 | < 1 |  | 
38 | C=CC(=O)N1Cc2cc(Cl)sc2[C@@H](c2ccccc2C)C1 [Compound 127] |  | < 1 |  | inhibition at 27 µM ([1]; 20 min preincubation): 95%
39 | C=CC(=O)N[C@H]1Cc2sccc2[C@@H](c2ccccc2Cl)C1 [Compound 130] |  | < 1 |  | inhibition at 3 µM ([1]; 30 min preincubation): < 1%
40 | C=CC(=O)N1Cc2sc(Cl)cc2[C@@H](c2ccccc2-c2ccccc2)C1 [Compound 133] |  | < 1 |  | inhibition at 1 µM ([1]; 30 min preincubation): 95%
41 | C=CC(=O)N1Cc2sc(Cl)cc2[C@@H]([C@@H](CC)C(=O)O)C1 [Compound 134] |  | < 1 |  | inhibition at 27 µM ([1]; 15 min preincubation): < 1%
